Patent EP4786473A1, “PHARMACEUTICALLY ACCEPTABLE SALT AND CRYSTALLINE FORM OF QUINAZOLINE DERIVATIVE, AND USE THEREOF” (Jiangsu Hengrui Pharmaceuticals Co., Ltd., priority 2023, dated 2025)
Where two headings read alike, the source gives them in different places. Values belong to the compound of their own block, whether it stands above or below them.

Tests used:
[1] = Stability study under influencing factors; format: physicochemical
Source text: The sampling and investigation period was 1 month.

[2] = Long-term/accelerated stability; format: physicochemical
[3] = DVS (dynamic vapor sorption) hygroscopicity test; format: physicochemical
Description: DVS refers to dynamic vapor sorption and is determined using SMS DVS Advantage at 25°C, with the humidity change of 50%-95%-0%-95%-50% and the stepping of 10% (5% for the last step) (the specific humidity range is determined in accordance with the corresponding plot, and the methods listed herein are those most commonly used), and the standard for determination is as follow: dm/dt is not more than 0.002%.
100 mg of the compound of formula 1 was dissolved in 1 mL of acetone to give a clear solution. An aqueous p-toluenesulfonic acid solution (97.10 µL, 2 M) was added to the resulting solution. The mixture was stirred and centrifuged. The resulting solid was collected and dried under vacuum to obtain a product. […] The p-toluenesulfonate ion content of the product was detected to be 22.63% by ion chromatography. […] Furthermore, the crystal form was re-detected and found to be unchanged following the DVS test.

[4] = system: HER2 A775_G776insYVMA mutant Ba/F3 cells; experiment: Ba/F3 cell proliferation assay (HER2 exon 20 YVMA insertion mutant); format: cell-based; conditions: 72 hours, Celltiter-Glo; for GI50: read-out: HER2 A775_G776 ins YVMA/BaF 3 GI50
Description: (§1) EGFR wild-type Ba/F3 cells in the logarithmic growth phase (Cobioer, Cat. No.: CBP73110) were seeded into 96-well plates at a density of 2.5 × 10^3 cells/100 uL of growth culture medium. HER2 wild-type Ba/F3 cells (Cobioer, Cat. No.: CBP73110) or HER2 A775_G776insYVMA mutant Ba/F3 cells (Cobioer, Cat. No.: CBP73184) in the logarithmic growth phase were seeded into 96-well plates at a density of 5 × 10^3 cells/100 uL of growth culture medium. The plates were incubated overnight in a 37°C cell incubator. The following day, the compound, which had been serially diluted 3-fold in growth culture medium, was added at 100 uL/well. All treatments were performed in triplicate. The plates were incubated in the 37°C cell incubator for another 72 hours. Celltiter-Glo Luminescent Cell Viability Assay was performed.
(§2) The cell proliferation rate was calculated for each well according to the following formula: Proliferation (%) = (G3 - G0 mean value of test compound wells)/(G3 mean value - GO mean value of DMSO control wells)*100. Based on the proliferation rate corresponding to each gradient concentration well and concentration thereof, the gradient curve of cell proliferation was fitted using Prism Graphpad software, and the GI50 of the compound was calculated (GI50 is defined as the compound concentration required to achieve a 50% inhibition rate of cell proliferation).

[5] = system: HER2 wild-type Ba/F3 cells; experiment: Ba/F3 cell proliferation assay (HER2 wild-type); format: cell-based; conditions: 72 hours, Celltiter-Glo
Description: as §1, §2

[6] = system: EGFR wild-type Ba/F3 cells; experiment: Ba/F3 cell proliferation assay (EGFR wild-type); format: cell-based; conditions: 72 hours, Celltiter-Glo
Description: as §1, §2

[7] = 75% RH, 1 month, open container
[8] = 75% RH, 13 days, open container
[9] = 92.5% RH, 1 month, open container
[10] = 92.5% RH, 13 days, open container
[11] = 4500 Lux, 1 month, open container
[12] = 4500 Lux, 7 days, open container
[13] = 4500 Lux, 13 days, open container

SMILES: C=CC(=O)N1[C@@H]2CC[C@H]1C[C@@H](Oc1ccc3ncnc(Nc4ccc(Oc5ccn6ncnc6c5)c(C)c4F)c3c1)C2 [Crystal form I of p-toluenesulfonate, 1-(endo-3-((4-((4-([1,2,4]triazolo[1,5-a]pyridin-7-yloxy)-2-fluoro-3-methylphenyl)amino)quinazolin-6-yl)oxy)-8-azabicyclo[3.2.1]oct-8-yl)prop-2-en-1-one]
- Colour and trait ([1]; 40°C, 1 month, open container): White powder
- Purity% ([1]; 40°C, 1 month, open container): 95.2%
- Salt form ([1]; 40°C, 1 month, open container): Unchanged
- Colour and trait ([1]; 40°C, 7 days, open container): White powder
- Purity% ([1]; 40°C, 7 days, open container): 98.7%
- Salt form ([1]; 40°C, 7 days, open container): Unchanged
- Colour and trait ([1]; 40°C, 13 days, open container): White powder
- Purity% ([1]; 40°C, 13 days, open container): 97.6%
- Salt form ([1]; 40°C, 13 days, open container): Unchanged
- Colour and trait ([1]; 60°C, 1 month, open container): White powder
- Purity% ([1]; 60°C, 1 month, open container): 94.9%
- Salt form ([1]; 60°C, 1 month, open container): Unchanged
- Colour and trait ([1]; 60°C, 7 days, open container): White powder
- Purity% ([1]; 60°C, 7 days, open container): 98.7%
- Salt form ([1]; 60°C, 7 days, open container): Unchanged
- Colour and trait ([1]; 60°C, 13 days, open container): White powder
- Purity% ([1]; 60°C, 13 days, open container): 97.8%
- Salt form ([1]; 60°C, 13 days, open container): Unchanged
- Colour and trait [1, 7]: White powder
- Purity% [1, 7]: 99.7%
- Salt form [1, 7]: Unchanged
- Colour and trait [1, 8]: White powder
- Purity% [1, 8]: 99.7%
- Salt form [1, 8]: Unchanged
- Colour and trait [1, 9]: White powder
- Purity% [1, 9]: 99.7%
- Salt form [1, 9]: Unchanged
- Colour and trait [1, 10]: White powder
- Purity% [1, 10]: 99.7%
- Salt form [1, 10]: Unchanged
- Colour and trait [1, 11]: White powder
- Purity% [1, 11]: 99.1%
- Salt form [1, 11]: Unchanged
- Colour and trait [1, 12]: White powder
- Purity% [1, 12]: 99.6%
- Salt form [1, 12]: Unchanged
- Colour and trait [1, 13]: White powder
- Purity% [1, 13]: 99.5%
- Salt form [1, 13]: Unchanged
- Colour and trait ([1]; Initial, 0 day): White powder
- Purity% ([1]; Initial, 0 day): 99.7%
- Salt form ([1]; Initial, 0 day): Crystal form I of p-toluenesulfonate
- Colour and trait ([2]; 25°C/60% RH, 1 month): White powder
- Purity% ([2]; 25°C/60% RH, 1 month): 99.7%
- Salt form ([2]; 25°C/60% RH, 1 month): Unchanged
- Colour and trait ([2]; 25°C/60% RH, 2 months): White powder
- Purity% ([2]; 25°C/60% RH, 2 months): 99.7%
- Salt form ([2]; 25°C/60% RH, 2 months): Unchanged
- Colour and trait ([2]; 25°C/60% RH, 3 months): White powder
- Purity% ([2]; 25°C/60% RH, 3 months): 99.7%
- Salt form ([2]; 25°C/60% RH, 3 months): Unchanged
- Colour and trait ([2]; 25°C/60% RH, 6 months): White powder
- Purity% ([2]; 25°C/60% RH, 6 months): 99.7%
- Salt form ([2]; 25°C/60% RH, 6 months): Unchanged
- Colour and trait ([2]; 25°C/60% RH, 14 days): White powder
- Purity% ([2]; 25°C/60% RH, 14 days): 99.7%
- Salt form ([2]; 25°C/60% RH, 14 days): Unchanged
- Colour and trait ([2]; 40°C/75% RH, 1 month): White powder
- Purity% ([2]; 40°C/75% RH, 1 month): 99.7%
- Salt form ([2]; 40°C/75% RH, 1 month): Unchanged
- Colour and trait ([2]; 40°C/75% RH, 2 months): White powder
- Purity% ([2]; 40°C/75% RH, 2 months): 99.7%
- Salt form ([2]; 40°C/75% RH, 2 months): Unchanged
- Colour and trait ([2]; 40°C/75% RH, 3 months): White powder
- Purity% ([2]; 40°C/75% RH, 3 months): 99.7%
- Salt form ([2]; 40°C/75% RH, 3 months): Unchanged
- Colour and trait ([2]; 40°C/75% RH, 6 months): White powder
- Purity% ([2]; 40°C/75% RH, 6 months): 99.7%
- Salt form ([2]; 40°C/75% RH, 6 months): Unchanged
- Colour and trait ([2]; 40°C/75% RH, 14 days): White powder
- Purity% ([2]; 40°C/75% RH, 14 days): 99.6%
- Salt form ([2]; 40°C/75% RH, 14 days): Unchanged
- Colour and trait ([2]; Initial, 0 day): White powder
- Purity% ([2]; Initial, 0 day): 99.7%
- Salt form ([2]; Initial, 0 day): Crystal form I of p-toluenesulfonate
- weight gain after moisture absorption ([3]; accelerated test conditions (70% RH)): about 1.57%
- crystal form re-detected following the DVS test ([3]; after DVS test): unchanged
- weight gain after moisture absorption ([3]; extreme conditions (90% RH)): about 2.21%
- weight gain after moisture absorption ([3]; normal storage conditions (25°C, 60% RH)): about 1.18%

- GI50 ([4]; Mus musculus, BaF3): 0.309 µM
SMILES: Cc1cc(Nc2ncnc3ccc(NC4=NC(C)(C)CO4)cc23)ccc1Oc1ccn2ncnc2c1 [Tucatinib, reference compound]
- HER2 A775_G77 6 ins YVMA/Ba F3 Imax % [4]: 100%

SMILES: C=CC(=O)N1[C@@H]2CC[C@H]1C[C@@H](Oc1ccc3ncnc(Nc4ccc(Oc5ccn6ncnc6c5)c(C)c4F)c3c1)C2 [Example 1, 1-(endo-3-((4-((4-([1,2,4]triazolo[1,5-a]pyridin-7-yloxy)-2-fluoro-3-methylphenyl)amino)quinazolin-6-yl)oxy)-8-azabicyclo[3.2.1]oct-8-yl)prop-2-en-1-one]
- HER2 WT/BaF 3 Imax % [5]: 100%
- GI50 ([5]; read-out: HER2 WT/Ba F3 GI50): 0.0093 µM
- EGFR WT/BaF 3 Imax % [6]: 100%
- GI50 ([6]; read-out: EGFR WT/BaF3 GI50): 2.84 µM
- HER2 A775_G77 6 ins YVMA/Ba F3 Imax % [4]: 100%
- GI50 [4]: 0.0103 µM
